Reference: ChEMBL document CHEMBL1157539, “Thousands of chemical starting points for antimalarial lead identification” (Nature, 2010)

The molecules below were run on Plasmodium falciparum (assay: GSK_TCMDC: Inhibition of Plasmodium falciparum 3D7 in whole erythrocytes, using parasite LDH activity as an index of growth.). Conditions: not given.
Type: functional, organism-based
Work on `Oc1cccc(-c2nc3cc(C4=NC5CCCCC5N4)ccc3[nH]2)c1` (stereo not drawn) yielded an XC50 of 530 nM.

Same assay, conditions: Plasmodium falciparum, 3D7
`COc1cc(C(C)C)nc2ccc(NC(=O)c3ccc(C(=O)Nc4ccc5nc(C(C)C)cc(OC)c5c4)cc3)cc12` gave an XC50 of 579 nM. Molecule `Cc1cccc2[nH]cc(C3CCN(CC4CCC(NC(=O)/C=C/c5ccc(Cl)c(Cl)c5)CC4)CC3)c12` (stereo not drawn) has an XC50 of 163 nM. `CN(C)CCOc1ccc2c(c1)CN(C)CC2c1ccccc1` (stereo not drawn) showed an XC50 of 1110 nM. `O=C1SC(S)=NC1=CNCCCCCCO` showed an XC50 of 850 nM. With `CC(C)(C)c1ccc(CN2CCCCC(NC(=O)c3cc(-c4cccc(F)c4)cs3)C2)cc1` (stereo not drawn) the XC50 was 783 nM. Work on `c1cc(CN2CCN(CCN3CCOCC3)CC2)cc(-c2cccc(-c3nc4ccccc4[nH]3)c2)c1` yielded an XC50 of 236 nM. `N#Cc1cccc(NC(=O)NC2CCN(CCCCCNC(=O)/C=C/c3ccc(Cl)c(Cl)c3)CC2)c1` gave an XC50 of 707 nM. For `Cc1cccc(C)c1N1CCN(C2CCC(NC(=O)c3cc4ccccc4[nH]3)CC2)CC1` (stereo not drawn), the XC50 was 601 nM. `COc1ccc(Cl)cc1N1CCN(CCCNC(=O)c2ccc(-c3nc4ccc(C(F)(F)F)cc4[nH]3)c(C)c2)CC1` gave an XC50 of 762 nM. For `COc1ccc(-c2ccc(NC(=O)c3ccc(F)cc3)cc2)cc1CN1CCCN(C)CC1`, the XC50 was 663 nM. Molecule `COC(=O)c1ccc(NC(=O)c2ccc(CCN3CCC(c4nc(COCC(F)(F)F)c(-c5ccc(F)cc5)o4)CC3)cc2)cc1` has an XC50 of 1040 nM. `O=C(N[C@H]1CCN(Cc2ccc(OCCCN3CCCCC3)cc2)C1)c1cc(Cl)cc(Cl)c1` showed an XC50 of 621 nM. `Cc1ccc(-c2ccn(Cc3ccc(OCc4ccccc4)cc3)n2)cn1.Cc1ccc(-c2ccnn2Cc2ccc(OCc3ccccc3)cc2)cn1` gave an XC50 of 674 nM. `Clc1ccc(OCc2ccccc2)c(Cc2ccc(-c3nc4cnccc4[nH]3)o2)c1` showed an XC50 of 754 nM. `Cc1cccc2nc(-c3ccc(-c4cccc(CN5CCCC5CN)c4)cc3)[nH]c12` (stereo not drawn) gave an XC50 of 914 nM. `CNC(=O)/C=C/c1cc(NC(=O)Nc2ccnc3c(Br)cccc23)ccc1OC` was tested, and the XC50 was 864 nM. `c1cc(C2=NC3CCCCC3N2)ccc1OCCCOc1ccc(C2=NC3CCCCC3N2)cc1` (stereo not drawn) gave an XC50 of 731 nM. In the case of `c1ccc(COc2ccc(Nc3ncnc4cnc(-c5ccc(CN6CCCCC6)o5)cc34)cc2)cc1`, the XC50 is reported as 967 nM. In the case of `N=C(N)c1ccc(Nc2nc(Nc3ccc(-c4ccccc4)cc3)ncc2[N+](=O)[O-])cc1`, the XC50 is reported as 804 nM. `CN(C)Cc1ccc(-c2ccc3c(Nc4ccc(Oc5ccccn5)cc4)ccnc3c2)o1` showed an XC50 of 159 nM. Work on `O=c1cc(NCCCNCc2cccc(SC(F)(F)F)c2)[nH]c2ccccc12` yielded an XC50 of 725 nM. Work on `O=C(O[C@@H]1CN[C@H](C#Cc2cc3ncnc(Nc4ccc5c(cnn5Cc5cccc(F)c5)c4)c3s2)C1)N1CCCC1` yielded an XC50 of 757 nM. With `CN1CCC(NCc2ccc(-c3ccc(S(=O)(=O)NC4CCC4)s3)cc2)CC1` the XC50 was 846 nM. In the case of `CCCCCc1cc(O)c2c(c1)OC(C)(C)CC2C1=CCN(Cc2cccnc2)CC1` (stereo not drawn), the XC50 is reported as 991 nM. `CCN1CCC(N(Cc2ccc(-c3ccc(C(F)(F)F)cc3)cc2)C(=O)Cn2c(CCc3cccc(F)c3F)nc(=O)c3ccccc32)CC1` showed an XC50 of 1060 nM. `CCN(CC)CCN(Cc1ccc(-c2ccc(C(F)(F)F)cc2)cc1)C(=O)CN1C(CCc2cccc(F)c2F)=NS(=O)(=O)c2ccccc21` showed an XC50 of 237 nM. Molecule `O=C(/C=C/c1ccc([N+](=O)[O-])cc1)N1CCC(NS(=O)(=O)c2cccc(C(F)(F)F)c2)CC1` has an XC50 of 847 nM. For `Cc1ccc(CC(C)NCC(O)c2cccc(C(F)(F)F)c2)cc1` (stereo not drawn), the XC50 was 981 nM. `O=C(C=Cc1ccccc1)Nc1ccc(C#CC=Cc2ccc(NC(=O)C=Cc3ccccc3)cc2)cc1` was tested, and the XC50 was 847 nM. `O=C(c1ccc(-c2ccc(Cl)cc2)o1)N1CCc2cc3nccc(N4CCN5CCC[C@H]5C4)c3cc21` was tested, and the XC50 was 170 nM. `O=C(CSc1nccn1C1CCCCC1)Nc1cc(C(F)(F)F)ccc1Cl` showed an XC50 of 402 nM. Molecule `CCOc1ncccc1CN1CCC(N2CCc3cc(NC(=O)c4ccco4)ccc32)C1` (stereo not drawn) has an XC50 of 758 nM. Work on `COc1ccc2[nH]ccc(=NN=Cc3ccccc3Cl)c2c1` yielded an XC50 of 664 nM. For `COc1ccc2nccc(N(C)CC3(O)CCN(CCc4ccc5c(c4)NC(=O)CS5)CC3)c2n1`, the XC50 was 136 nM. `CC(C)CCNc1nc(NCc2ccccc2)c2cc(O)ccc2n1` gave an XC50 of 105 nM. `O=C(/C=C/c1ccc(Cl)c(Cl)c1)NCCCCCCN1CCCN(C(=O)Nc2cc(F)cc(F)c2)CC1` was tested, and the XC50 was 708 nM. `Cc1nc(C(C)Nc2nncc(-c3ccc(Cl)cc3)n2)cs1` (stereo not drawn) showed an XC50 of 1330 nM. In the case of `CCCc1cc(OC)c(CC2c3cc(O)c(C)cc3CCN2C)cc1OC` (stereo not drawn), the XC50 is reported as 701 nM. With `COc1cccc(-c2cc(C(=O)Nc3ccc4[nH]c(-c5ccccc5)nc4c3)[nH]n2)c1` the XC50 was 836 nM. `Cc1ccc(Cl)cc1NC(=O)c1c(-c2ccccc2Cl)noc1C` was tested, and the XC50 was 192 nM. `O=C(NCc1ccc(Cl)c(Cl)c1)c1ccc(-c2nc3cc(F)c(F)cc3[nH]2)cc1` gave an XC50 of 1050 nM. `Cc1ccccc1/N=C1\NC(=S)N(c2cccc(C(F)(F)F)c2)C12CCC(C(C)(C)C)CC2` (stereo not drawn) showed an XC50 of 973 nM. Work on `CC(C)(C)c1ccc(NC(=O)N[C@@H]2CCN(c3ccnc4ccccc34)C2)cc1` yielded an XC50 of 350 nM. For `Cc1cccc2nc(-c3ccc(-c4cccc(CNC5CCN(C)CC5)c4)s3)[nH]c12`, the XC50 was 182 nM. For `CCCC(=O)Nc1ccc(OCCCN(Cc2ccccc2OC(F)(F)F)c2ccc(C#N)c(C(F)(F)F)c2)cc1`, the XC50 was 600 nM. With `CCN(CC)CCN(Cc1ccc(-c2ccc(C(F)(F)F)cc2)cc1)C(=O)Cn1c(/C=C/c2ccco2)nc(=O)c2ccccc21` the XC50 was 870 nM. With `CN(C(=O)C(C)(C)Oc1ccc(Cl)cc1)C1CCN(CCCCCNC(=O)/C=C/c2ccc(Cl)c(Cl)c2)CC1` the XC50 was 916 nM. For `Cc1cccc2nc(-c3ccc(-c4cccc(CN5CCN(c6ccncc6)CC5)c4)cc3)[nH]c12`, the XC50 was 117 nM. Work on `COc1ccc(CN(C)CCCOc2ccc(NC(=O)C=Cc3ccc(C(C)(C)C)cc3)cc2)cc1OC` yielded an XC50 of 855 nM. Molecule `CNC(=S)NCc1cnc2ccccn12` has an XC50 of 195 nM. In the case of `Cc1cc(N[C@@H](Cc2ccccc2)C(=O)Nc2ccccc2)nc(Nc2ccccc2)n1`, the XC50 is reported as 1010 nM. Work on `CCCc1ccc(Cc2cnc3nc(N)nc(N)c3c2C)cc1` yielded an XC50 of 283 nM. For `Cc1ccc(Nc2nc(N/N=C/c3cc4c(cc3Br)OCO4)nc(Nc3ccc([N+](=O)[O-])cc3)n2)cc1C`, the XC50 was 750 nM. In the case of `COc1cccc(Nc2nc(N)c3ccccc3n2)c1`, the XC50 is reported as 934 nM. `CN(C)CCOc1ccc(NC(=O)Nc2ccnc3c(Br)cccc23)cc1Cl` gave an XC50 of 842 nM. `Cc1cccc2nc(-c3cccc(-c4cccc(CN5CCN(c6ccncc6)CC5)c4)c3)[nH]c12` gave an XC50 of 200 nM. In the case of `FC(F)(F)COc1c(CNCCCCCCNCc2ccc3ccccc3c2OCC(F)(F)F)ccc2ccccc12`, the XC50 is reported as 761 nM. `CC(=O)Nc1cccc(CNCc2ccc(-c3cnc(N4CCCC(c5ccccc5)C4)nc3)cc2)c1` (stereo not drawn) was tested, and the XC50 was 1190 nM. `O=C(C=Cc1ccc(Cl)c(Cl)c1)NCCCCCN1CCCC(CCCNC(=O)C2CC2c2ccccc2)C1` (stereo not drawn) showed an XC50 of 1130 nM. In the case of `CCN(CC)CCOc1ccc(Nc2ncc3cc(-c4c(Cl)cccc4Cl)c(=O)n(C)c3n2)cc1` [PD-0166285], the XC50 is reported as 1180 nM. Work on `Cc1ccc(C2CCN(CCCCNC(=O)c3ccc(NC(=O)c4ccc(Cl)cc4)cc3)CC2)c(C)c1` yielded an XC50 of 842 nM. In the case of `CCNC(=O)Nc1ccc(N(C)c2ccnc(NC3CC3)n2)cc1`, the XC50 is reported as 803 nM. `COc1ccc(-c2cc(C(=O)N[C@@H](CC3CCCCC3)C(=O)NC3CCCc4ccccc43)ccc2O)cc1` (stereo partly drawn) gave an XC50 of 688 nM. With `CC(=O)Nc1cccc(C(=O)Nc2cccc(-c3cccc(-c4nc5ccccc5[nH]4)c3)c2)c1` the XC50 was 594 nM. `O=C(Nc1ccc(Cl)cc1)c1ccc(CN2CCCN(Cc3ccsc3)CC2)cc1` gave an XC50 of 862 nM. In the case of `CC(CN(C)C)C(=O)Nc1ccc(-c2cccc(-c3nc4cc(C(F)(F)F)ccc4[nH]3)c2)cc1` (stereo not drawn), the XC50 is reported as 210 nM. Work on `Cc1cc(-c2cccc(CNC3CCN(C)CC3)c2)ccc1S(=O)(=O)NCCN1CCCC1` yielded an XC50 of 977 nM.
